Reference: patent US20140228440A1, “1-AMINO-ALKYLCYCLOHEXANE DERIVATIVES FOR THE TREATMENT OF INFLAMMATORY SKIN DISEASES” (MERZ PHARMA GmbH & CO. KGaA, priority 2008, published 2014)

How the values were obtained:
Test in all cases: MIC and MBC by the agar dilution method
Assay type in all cases: cell-based
Details in all cases: pH 5.5
[1] = test system: Propionibacterium acnes ATCC 11828
Method: (§1) To assess the anti-microbial potency of Neramexane against acne relevant bacterias the minimal inhibitory concentration (MIC) and minimal bactericidal concentration (MBC) against the following bacterias is established: The MICs of the samples are determined using the agar dilution method based on DIN 58940. Petri dishes of 5.5 cm diameter are poured with 2.5 ml of freshly prepared Mueller-Hinton agar (Merck company, Cat-No 1.05437) or Wilkins-Chalgren-Agar (Oxoid company, Cat-No CM643), maintained in liquid form at 50° C., to which the sample dilutions at various concentrations have been added at 50.0 vol.-%. To prepare the starting sample dilutions, a 12.5%, 3.12% suspension of the respective sample solution is prepared with Aqua purificata. From these stock-solutions, further dilutions are prepared with Aqua purificata. All test compounds are adjusted to pH 5.5. For test product no. 1, separate dilutions adjusted to pH 6.0 and pH 7.4 are also prepared. For inoculation, 1 μl of the respective germ suspension is placed on the centre of each agar plate. After drying, inoculated plates are incubated at 36.0±2.0° C. The basis for the length of incubation period is the respective growth control cultivated in parallel. The test microbe suspension is prepared by inoculating a few individual colonies of the respective bacteria into sterile saline solution until a turbidity corresponding to the McFarland standard 1.0 (approximately 10^8 cfu/ml) is reached. After that, the test microbe suspensions are further diluted 1:10 with saline solution and the microbial counts (see Table 21) are determined by the surface spread method using a spiral plater. The agar plates are incubated under the conditions given in Table 22 and subsequently evaluated. The MIC-values as given represent the lowest concentration of the active substance at which there is no macroscopically visible growth. Minimal, barely visible growth or few small individual colonies are evaluated as inhibition. [table] All negative tests of the determination of the minimal bactericial concentration are the basis of verification of remaining germs, the inoculated agar segments are cut and put in Mueller-Hinton-Bouillon (germ 1) or Wilkins-Chalgren-Bouillon (germs 2-4). After an adequate incubation period at 36.0±2.0° C. (as judged from a control without test compound), the tests are checked manually on microbial growth (=turbidity) and the minimal bactericidal concentration is determined. MBC indicates the concentration without marked turbidity. Grown germs are checked for identity to rule out unspecific contaminations. The following results are summarized and tabulated: • a) Results of the Minimal Inhibitory Concentration (MIC)* • b) Results of the Minimal Bactericidal Concentration (MBC) *The MIC is the concentration without macroscopical growth. Scarcely apparent, minimum growth or few single colonies are not considered. The controls must have a respectively good developed growth. There must be no growth on the agar plates for the sterile control. The growth of bacteria is indicated for the duplicate plates by a +(i.e., growth) or a −(i.e., no growth), +− indicates weak growth on both plates or growth on one plate and no growth on the other plate. All bacteria show appropriate growth on the respective control plate not containing any test compound. No influence of the used diluent (Aqua purifacata) was observed. No contamination is observed on the control-plates.

[2] = test system: Propionibacterium avidum ATCC 25577
Method: as §1

[3] = test system: Propionibacterium granulosum ATCC 11829
Method: as §1

[4] = test system: Staphylococcus epidermidis ATCC 12228
Method: as §1

[5] = final concentration 0.002 % (Neramexane-HCl)
[6] = final concentration 0.005 % (Neramexane-HCl)
[7] = final concentration 0.01 % (Neramexane-HCl)
[8] = final concentration 0.02 % (Neramexane-HCl)
[9] = final concentration 0.04 % (Neramexane-HCl)
[10] = final concentration 0.08 % (Neramexane-HCl)
[11] = final concentration 0.16 % (Neramexane-HCl)
[12] = final concentration 0.31 % (Neramexane-HCl)
[13] = final concentration 0.63 % (Neramexane-HCl)
[14] = final concentration 1.56 % (Neramexane-HCl)

CC1(C)CC(C)(C)CC(C)(N)C1.Cl [Neramexane-HCl]
growth of bacteria on duplicate plates (MIC determination) [1, 5]: + + | growth of bacteria on duplicate plates (MIC determination) [1, 6]: + + | growth of bacteria on duplicate plates (MIC determination) [1, 7]: + + | growth of bacteria on duplicate plates (MIC determination) [1, 8]: + + | growth of bacteria on duplicate plates (MIC determination) [1, 9]: + + | growth of bacteria on duplicate plates (MIC determination) [1, 10]: + + | growth of bacteria (MBC determination) [1, 11]: + + | growth of bacteria on duplicate plates (MIC determination) [1, 11]: − − | growth of bacteria (MBC determination) [1, 12]: + + | growth of bacteria on duplicate plates (MIC determination) [1, 12]: − − | growth of bacteria (MBC determination) [1, 13]: + + | growth of bacteria on duplicate plates (MIC determination) [1, 13]: − − | growth of bacteria (MBC determination) [1, 14]: − − | growth of bacteria on duplicate plates (MIC determination) [1, 14]: − − | MBC [1]: 1.56% | MIC [1]: 0.16% | growth of bacteria on duplicate plates (MIC determination) [2, 5]: + + | growth of bacteria on duplicate plates (MIC determination) [2, 6]: + + | growth of bacteria on duplicate plates (MIC determination) [2, 7]: + + | growth of bacteria on duplicate plates (MIC determination) [2, 8]: + + | growth of bacteria on duplicate plates (MIC determination) [2, 9]: + + | growth of bacteria on duplicate plates (MIC determination) [2, 10]: + − | growth of bacteria (MBC determination) [2, 11]: + + | growth of bacteria on duplicate plates (MIC determination) [2, 11]: − − | growth of bacteria (MBC determination) [2, 12]: + + | growth of bacteria on duplicate plates (MIC determination) [2, 12]: − − | growth of bacteria (MBC determination) [2, 13]: + + | growth of bacteria on duplicate plates (MIC determination) [2, 13]: − − | growth of bacteria (MBC determination) [2, 14]: − − | growth of bacteria on duplicate plates (MIC determination) [2, 14]: − − | MBC [2]: 1.56% | MIC [2]: 0.16% | growth of bacteria on duplicate plates (MIC determination) [3, 5]: + + | growth of bacteria on duplicate plates (MIC determination) [3, 6]: + + | growth of bacteria on duplicate plates (MIC determination) [3, 7]: + + | growth of bacteria on duplicate plates (MIC determination) [3, 8]: + + | growth of bacteria on duplicate plates (MIC determination) [3, 9]: + + | growth of bacteria (MBC determination) [3, 10]: + + | growth of bacteria on duplicate plates (MIC determination) [3, 10]: − − | growth of bacteria (MBC determination) [3, 11]: + + | growth of bacteria on duplicate plates (MIC determination) [3, 11]: − − | growth of bacteria (MBC determination) [3, 12]: + + | growth of bacteria on duplicate plates (MIC determination) [3, 12]: − − | growth of bacteria (MBC determination) [3, 13]: − − | growth of bacteria on duplicate plates (MIC determination) [3, 13]: − − | growth of bacteria (MBC determination) [3, 14]: − − | growth of bacteria on duplicate plates (MIC determination) [3, 14]: − − | MBC [3]: 0.63% | MIC [3]: 0.08% | growth of bacteria on duplicate plates (MIC determination) [4, 5]: + + | growth of bacteria on duplicate plates (MIC determination) [4, 6]: + + | growth of bacteria on duplicate plates (MIC determination) [4, 7]: + + | growth of bacteria on duplicate plates (MIC determination) [4, 8]: + + | growth of bacteria on duplicate plates (MIC determination) [4, 9]: + + | growth of bacteria on duplicate plates (MIC determination) [4, 10]: + + | growth of bacteria on duplicate plates (MIC determination) [4, 11]: + + | growth of bacteria on duplicate plates (MIC determination) [4, 12]: + + | growth of bacteria (MBC determination) [4, 13]: + + | growth of bacteria on duplicate plates (MIC determination) [4, 13]: − − | growth of bacteria (MBC determination) [4, 14]: + + | growth of bacteria on duplicate plates (MIC determination) [4, 14]: − − | MBC [4]: >1.56% | MIC [4]: 0.63%
